± gives the expanded uncertainty stated by the source.
Test: mn = molality of the nth substance listed, in mol/kg
Details: 298.15 K, 101 kPa, Liquid, Pulse-echo method

Question: What does the source list for `NCC(=O)N[C@@H](CO)C(=O)NCC(=O)O` [glycyl-L-serylglycine] + O?
Answer: speed of sound (m1 = 0.02692): 1499.5 ± 0.77 m/s; speed of sound (m1 = 0.03696): 1500.6 ± 0.77 m/s; speed of sound (m1 = 0.04335): 1501.3 ± 0.77 m/s; speed of sound (m1 = 0.05037): 1502 ± 0.77 m/s; speed of sound (m1 = 0.06228): 1503.2 ± 0.77 m/s

From the NIST ThermoML archive (doi:10.1016/j.jct.2009.08.004)
